Measured values: ChEMBL document CHEMBL1121379, “Some short-chain N6-substituted adenosine analogues with antitumor properties” (1980)
Values joined by “and” are separate entries in the source; they are usually repeats but may differ in a detail not shown here. Equal values may be shown once.

What was measured:
Assay type in all cases: functional
Mus musculus [1] = assay: Antitumor activity against slow growing spontaneous mammary tumors in the DBA/2 Ha-DD mouse mean life span in days at 50 mg/kg give 5 times once in 5 days
L1210 = assay: Concentration required for 50% growth inhibition of the following cell lines Leukemia L-1210 cells; conditions: Mus musculus, read-out: ID50 (the source's name)
Mus musculus [2] = assay: antitumor activity against mouse leukemia, L-1210(DBA/2 Ha Mice) % increase in life span at 3.12 mg/kg of dose per day; conditions: L1210, dose 3.12 mg/kg
Mus musculus [3] = assay: Antitumor activity against slow growing spontaneous mammary tumors in the DBA/2 Ha-DD mouse number of days reacquired fro tumor growth 3.8 mg/kg/day x 5 melphalan once in 5 days; set-up: unit: days
Mus musculus [4] = species on record: Mus musculus; assay: Concentration required for 50% growth inhibition of the following cell lines mouse fibro blasts; conditions: read-out: ID50 (the source's name)
[5] = Concentration required for 50% growth inhibition of the following cell lines Carcinoma TA-3 cells; conditions: Mus musculus, TA3; read-out: ID50 (the source's name)
Mus musculus [6] = assay: Antitumor activity against slow growing spontaneous mammary tumors in the DBA/2 Ha-DD mouse % increased in life span 3.8 mg/kg/day x 5 melphalan + 50 mg/kg/day compound
Mus musculus [7] = assay: Antitumor activity against mouse leukemia, L-1210(DBA/2 Ha Mice) mean life span ( days) of the mouse after the dosage at 1.56 mg/kg of dose per day
Mus musculus [8] = assay: Antitumor activity against slow growing spontaneous mammary tumors in the DBA/2 Ha-DD mouse % increased in life span 3.8 mg/kg/day x 5 melphalan + 50 mg/kg/day
[9] = Concentration required for 50% growth inhibition of the following cell lines human bladder carcinoma cells; conditions: read-out: ID50 (the source's name)
[10] = Concentration required for 50% growth inhibition of human breast tumor cells SW-613 human breast adenocarcinoma cells; conditions: SW613, read-out: ID50 (the source's name)
MCF7 = assay: Concentration required for 50% growth inhibition of human breast tumor cells MCF-7 human breast carcinoma cells; conditions: read-out: ID50 (the source's name)
Burkitts lymphoma cell = assay: Concentration required for 50% growth inhibition of the following cell lines human burkitt lymphoma cells; conditions: read-out: ID50 (the source's name)
[11] = Concentration required for 50% growth inhibition of the following cell lines sarcoma S-180 cells; conditions: Mus musculus, read-out: ID50 (the source's name)
[12] = Concentration required for 50% growth inhibition of the following cell lines human fibro blast cells; conditions: read-out: ID50 (the source's name)
Mus musculus [13] = assay: Antitumor activity against mouse leukemia, L-1210(DBA/2 Ha Mice) % increase in life span at 3.12 mg/kg of dose per day; conditions: for ILS at 3.12 mg/kg: Mus musculus, L1210, dose 3.12 mg/kg
HeLa = assay: Concentration required for 50% growth inhibition of the following cell lines Hela cells; conditions: Homo sapiens, read-out: ID50 (the source's name)
Mus musculus [14] = assay: Antitumor activity against mouse leukemia, L-1210(DBA/2 Ha Mice) mean life span (days) of the mouse after fractionated dosage(dose divided in two halves and administered in two daily injections) at 6.25 mg/kg of dose per day

SMILES	Life span (Mus musculus [1]; 50 mg/kg)	IC50 (L1210) [µM]	Tumor half growth (Mus musculus [3])	IC50 (Mus musculus [4]) [µM]	IC50 [5] [µM]	ILS (Mus musculus [6])	IC50 [9] [µM]	IC50 [10] [µM]	IC50 (MCF7) [µM]	IC50 (Burkitts lymphoma cell) [µM]	IC50 [11] [µM]	IC50 [12] [µM]	Life span (Mus musculus [7])	ILS at 3.12 mg/kg (Mus musculus [13]) [%]	other results
C=CCNc1ncnc2c1ncn2[C@@H]1O[C@H](CO)[C@@H](O)[C@H]1O	46.6 and 48	12	16 and 26 and 30	14	3	82.5% and 38.7%	7.5	50	1.4	2.3	20	2.7	–	–	ILS at 3.12 mg/kg (Mus musculus [2]): 8%; Life span (Mus musculus [7]; 1.56 mg/kg): 8.3 and 10; ILS (Mus musculus [8]): 42.8%
CC(C)Nc1ncnc2c1ncn2[C@@H]1O[C@H](CO)[C@@H](O)[C@H]1O	63.3 and 54.8 and 23.6	19	17 and 24	20	13	25.5% and 60% and 63.1%	11	150	6.3	27	30	6.5	7.3	–	ILS (Mus musculus [13]; dose 3.12 mg/kg): 14.7% and 17.4% and 37.4%
C=C(C)CNc1ncnc2c1ncn2C1O[C@H](CO)[C@@H](O)[C@H]1O (stereo partly drawn)	–	19	15	25	18	19%	9	4	–	11	–	1.5	30	–	–
C#CCNc1ncnc2c1ncn2C1O[C@H](CO)[C@@H](O)[C@H]1O (stereo partly drawn)	–	1	18	3.1	2.5	60%	3.8	–	1.6	8.3	–	2.8	8.2	20	IC50 (HeLa): 3.5 µM
OC[C@H]1O[C@@H](n2cnc3c(NCc4ccccc4)ncnc32)[C@H](O)[C@@H]1O [N6-BENZYLADENOSINE]	–	8.5	20 and 21	–	14	10.9% and 26%	–	4	22	11	45	–	9.7	41	Life span (Mus musculus [1]): 62.6; Life span (Mus musculus [14]): 38.8
